Tests used:
SK-MEL-28 = settings: SK-MEL-28, melanoma, TAXOL resistant cell line; cited from earlier work
MDA-MB-435 = settings: MDA-MB-435, breast, TAXOL sensitive cell line; cited from earlier work
SN12C = settings: renal, TAXOL sensitive cell line; cited from earlier work
EKVX = settings: non-small cell lung carcinoma, TAXOL resistant cell line; cited from earlier work
SK-MEL-2 = settings: SK-MEL-2, melanoma, TAXOL sensitive cell line; cited from earlier work
MCF-7 = settings: MCF-7, breast, TAXOL sensitive cell line; cited from earlier work
T-47D = settings: breast, TAXOL resistant cell line; cited from earlier work
[1] = test system: TAXOL sensitive cancer cell lines; experiment: TAXOL growth inhibition (GI50), mean of TAXOL sensitive cell lines; format: cell-based; settings: Homo sapiens; mean of the nine TAXOL sensitive cell lines of Table C; read-out: Log GI 50 for TAXOL (Mean) (converted)
Method: (§1) One group of nine cell lines was determined to be sensitive to TAXOL (Table C), the other group of nine cell lines was determined to be resistant to TAXOL (Table B). Sensitivity to TAXOL was based on known GI50 values for these cells, which for this study was defined as the concentration of TAXOL required to inhibit growth of the cell line by 50%. More precisely, the quantity used in the calculation is the potency measure −log {GI50}. Pooled RNA from TAXOL sensitive cancer cell lines was used as tester against driver RNA pooled from TAXOL resistant cancer cell lines. The results of this subtractive library are shown in SEQ ID NOS: 1-127, SEQ ID NOS: 398-517 and SEQ ID NOS: 746-841. Pooled RNA from TAXOL resistant cancer cell lines was used as tester against driver RNA pooled from TAXOL sensitive cancer cell lines. The results of this subtractive library are shown in SEQ ID NOS: 128-397, SEQ ID NOS: 518-745 and SEQ ID NOS: 842-1046.

OVCAR-4 = settings: OVCAR-4, ovarian, TAXOL resistant cell line; cited from earlier work
HT-29 = settings: HT-29, colon, TAXOL sensitive cell line; cited from earlier work
NCI-H522 = settings: NCI-H522, non-small cell lung carcinoma, TAXOL sensitive cell line; cited from earlier work
SK-MEL-5 = settings: SK-MEL-5, melanoma, TAXOL sensitive cell line; cited from earlier work
HOP-92 = settings: HOP-92, non-small cell lung carcinoma, TAXOL resistant cell line; cited from earlier work
HCT-15 = settings: HCT-15, colon, TAXOL resistant cell line; cited from earlier work
NCI-H460 = settings: NCI-H460, non-small cell lung carcinoma, TAXOL sensitive cell line; cited from earlier work
[2] = test system: TAXOL resistant cancer cell lines; experiment: TAXOL growth inhibition (GI50), mean of TAXOL resistant cell lines; format: cell-based, human; settings: mean of the nine TAXOL resistant cell lines of Table B
Method: as §1

ACHN = settings: renal, TAXOL resistant cell line; cited from earlier work
MALME-3M = settings: melanoma, TAXOL resistant cell line; cited from earlier work
MCF-7/AdrRes = settings: breast, TAXOL resistant cell line; cited from earlier work
OVCAR-3 = settings: OVCAR-3, ovarian, TAXOL sensitive cell line; cited from earlier work
tumor = settings: animal models; cited from earlier work

For `CC(=O)O[C@H]1C(=O)[C@@]2(C)[C@H]([C@H](OC(=O)c3ccccc3)[C@]3(O)C[C@H](OC(=O)[C@H](O)[C@@H](NC(=O)c4ccccc4)c4ccccc4)C(C)=C1C3(C)C)[C@]1(OC(C)=O)CO[C@@H]1C[C@@H]2O` [TAXOL], the “Log GI 50 for TAXOL” value (SK-MEL-28) is listed as −7.1, the “Log GI 50 for TAXOL” value (MDA-MB-435) is listed as −8.6 and the “Log GI 50 for TAXOL” value (SN12C) is listed as −8.5. The “Log GI 50 for TAXOL” value (EKVX) was −6.6, the “Log GI 50 for TAXOL” value (SK-MEL-2) was −8.3 and the “Log GI 50 for TAXOL” value (MCF-7) was −8.5. For the same molecule, the “Log GI 50 for TAXOL” value (T-47D) was −6.9, the GI50 [1] was 3.16 nM and the “Log GI 50 for TAXOL” value (OVCAR-4) was −6.3. For the same molecule, the “Log GI 50 for TAXOL” value (HT-29) was −8.6, the “Log GI 50 for TAXOL” value (NCI-H522) was −8.5 and the “Log GI 50 for TAXOL” value (SK-MEL-5) was −8.4. The “Log GI 50 for TAXOL” value (HOP-92) was −7.2, the “Log GI 50 for TAXOL” value (HCT-15) was −6.7 and the “Log GI 50 for TAXOL” value (NCI-H460) was −8.5. The “Log GI 50 for TAXOL (Mean)” value [2] was −6.5, the “Log GI 50 for TAXOL” value (ACHN) was −5.8 and the “Log GI 50 for TAXOL” value (MALME-3M) was −6.8. The “Log GI 50 for TAXOL” value (MCF-7/AdrRes) was −5.5 and the “Log GI 50 for TAXOL” value (OVCAR-3) was −8.5.
In the case of `CC(=O)O[C@@]12CO[C@@H]1C[C@H](O)[C@@]1(C)C(=O)[C@H](O)C3=C(C)[C@@H](OC(=O)[C@H](O)[C@@H](NC(=O)OC(C)(C)C)c4ccccc4)C[C@@](O)([C@@H](OC(=O)c4ccccc4)[C@H]21)C3(C)C` [Taxotere, docetaxel], the anti-tumor activity (tumor) is listed as “good anti-tumor activity”.

From US20020110815A1, “Novel genes, compositions and methods for the identification, assessment, prevention, and therapy of human cancers” (priority 2000, published 2002)
